From patent US4130709A, “Pleuromutilin glycoside derivatives” (Eli Lilly and Company, priority 1977, dated 1978)

tested on: Staphylococcus aureus (H-Heatley) NRRL B-314; test: in vitro turbidometric assay (Autoturb Microbiological Assay System) against Staphylococcus aureus; assay type: cell-based; conditions: nutrient broth pH 7, approximately 4 hours at 37° C., A-40104 factor A as standard
Protocol: The compounds are conveniently tested against a typical gram-positive organism, Staphylococcus aureus, using a turbidometric assay on a semi-automated system (Autoturb Microbiological Assay System, Elanco) described by N. R. Kuzel and F. W. Kavanagh in J. Pharmaceut. Sci, 60 (5), 764 and 767 (1971). In testing these compounds, the following parameters were used: Staphylococcus aureus (H-Heatley) NRRL B-314 in a nutrient broth medium (pH 7), incubated for approximately 4 hours at 37° C. Test samples and A-40104 factor A, which is used as a standard, were dissolved in water. The standard was presented to the Autoturb carrousel at concentrations of 1.25, 2.50, 3.75, 5.00 and 6.25 mcg/ml. Test compounds were diluted to contain approximately 2.5 to 5.0 mcg of activity per ml, as presented to the carrousel. The units of activity of some of the typical compounds of this invention (R^2 =H in group tested) in this in vitro assay are summarized in Table I

Row | Compound | Units of Activity
1 | CC[C@]1(C)C[C@@H](OC(=O)CS[C@@H]2OC[C@@H](OC(C)=O)[C@@H](OC(C)=O)[C@H]2OC(C)=O)[C@]2(C)[C@H](C)CC[C@]3(CCC(=O)[C@H]32)[C@@H](C)[C@@H]1O | 480 to 500 µg/mg
2 | C=C[C@]1(C)C[C@@H](OC(=O)CO[C@@H]2OC[C@@H](O)[C@H](O)[C@H]2O)[C@]2(C)[C@H](C)CC[C@]3(CCC(=O)[C@H]32)[C@@H](C)[C@@H]1O [A-40104 factor A, reference compound] | 446 to 452 µg/mg
3 | CC[C@]1(C)C[C@@H](OC(=O)CO[C@H]2O[C@H](CO)[C@@H](O)[C@H](O)[C@H]2O)[C@]2(C)[C@H](C)CC[C@]3(CCC(=O)[C@H]32)[C@@H](C)[C@@H]1O [Example 2, 14-deoxy-14-[(α-D-glucopyranosyl)oxyacetoxy]-19,20-dihydromutilin] | < 100 µg/mg
4 | C=C[C@]1(C)C[C@@H](OC(=O)CS[C@@H]2OC[C@@H](OC(C)=O)[C@@H](OC(C)=O)[C@@H]2OC(C)=O)[C@]2(C)[C@H](C)CC[C@]3(CCC(=O)[C@H]32)[C@@H](C)[C@@H]1O [Example 20, 14-Deoxy-14-[(2,3,4-tri-O-acetyl-β-D-arabinopyranosyl)thioacetoxy]mutilin] | 430 µg/mg
5 | CC[C@]1(C)C[C@@H](OC(=O)CS[C@@H]2OC[C@@H](OC(C)=O)[C@@H](OC(C)=O)[C@@H]2OC(C)=O)[C@]2(C)[C@H](C)CC[C@]3(CCC(=O)[C@H]32)[C@@H](C)[C@@H]1O [Example 21, 14-Deoxy-14-[(2,3,4-tri-O-acetyl-β-D-arabinopyranosyl)thioacetoxy]-19,20-dihydromutilin] | 380 µg/mg
6 | C=C[C@]1(C)C[C@@H](OC(=O)CS[C@@H]2OC[C@@H](O)[C@@H](O)[C@@H]2O)[C@]2(C)[C@H](C)CC[C@]3(CCC(=O)[C@H]32)[C@@H](C)[C@@H]1O [Example 22, 14-Deoxy-14-[(β-D-arabinopyranosyl)thioacetoxyl]mutilin] | 380 µg/mg
7 | CC[C@]1(C)C[C@@H](OC(=O)CS[C@@H]2OC[C@@H](O)[C@@H](O)[C@@H]2O)[C@]2(C)[C@H](C)CC[C@]3(CCC(=O)[C@H]32)[C@@H](C)[C@@H]1O [Example 23, 14-deoxy-14-[(β-D-arabinopyranosyl)thioacetoxy]-19,20-dihydromutilin] | 420 µg/mg
8 | C=C[C@]1(C)C[C@@H](OC(=O)CS[C@H]2OC[C@@H](OC(C)=O)[C@@H](OC(C)=O)[C@H]2OC(C)=O)[C@]2(C)[C@H](C)CC[C@]3(CCC(=O)[C@H]32)[C@@H](C)[C@@H]1O [Example 36 α-anomer, 14-deoxy-14-[(2,3,4-tri-O-acetyl-α-D-ribopyranosyl)thioacetoxy]mutilin] | 50 µg/mg
9 | C=C[C@]1(C)C[C@@H](OC(=O)CS[C@H]2OC[C@@H](O)[C@@H](O)[C@H]2O)[C@]2(C)[C@H](C)CC[C@]3(CCC(=O)[C@H]32)[C@@H](C)[C@@H]1O [Example 37, 14-Deoxy-14-[(α-D-ribopyranosyl)thioacetoxy]-mutilin] | 350 µg/mg
10 | C=C[C@]1(C)C[C@@H](OC(=O)CS[C@@H]2OC[C@@H](O)[C@@H](O)[C@H]2O)[C@]2(C)[C@H](C)CC[C@]3(CCC(=O)[C@H]32)[C@@H](C)[C@@H]1O [Example 38, 14-Deoxy-14-[(β-D-ribopyranosyl)thioacetoxy]-mutilin] | 1070 µg/mg
11 | CC[C@]1(C)C[C@@H](OC(=O)CS[C@H]2OC[C@@H](O)[C@@H](O)[C@H]2O)[C@]2(C)[C@H](C)CC[C@]3(CCC(=O)[C@H]32)[C@@H](C)[C@@H]1O [Example 39, 14-Deoxy-14-[(α-D-ribopyranosyl)thioacetoxy]-19,20-dihydromutilin] | 430 to 433 µg/mg
12 | CC[C@]1(C)C[C@@H](OC(=O)CS[C@@H]2OC[C@@H](O)[C@@H](O)[C@H]2O)[C@]2(C)[C@H](C)CC[C@]3(CCC(=O)[C@H]32)[C@@H](C)[C@@H]1O [Example 40, 14-Deoxy-14-[(β-D-ribopyranosyl)thioacetoxy]-19,20-dihydromutilin] | 1500 µg/mg
